Data: patent US20140302568A1, “POLYOL OXIDASE” (NATIONAL UNIVERSITY CORPORATION KAGAWA UNIVERSITY, priority 2011, published 2014)

Key:
[1] = system: polyol oxidase derived from Penicillium sp. KU-1; assay: Substrate specificity of the partially purified polyol oxidase (peroxidase method); assay type: biochemical; details: for Relative activity (%): substrate specificity, partially purified enzyme, relative to D-arabitol = 100
Procedure: As the measurement method for the oxidase activity, a peroxidase method was used. When a D-glucose oxidase is taken as an example, the principle of the peroxidase method is as follows.
In this method, the activity is measured by colorimetric determination of hydrogen peroxide generated by an oxidation reaction. When hydrogen peroxide generated by an oxidation reaction with a substrate is reacted with a peroxidase, an oxidation reaction of ABTS is catalyzed to generate oxidized ABTS. The oxidized ABTS develops a blue color, and therefore, by visual observation or measurement of absorbance at 420 nm, the oxidase activity can be detected. In the measurement of the activity, the crude extract solution obtained by extraction from the wheat bran culture medium was used. Further, as the control, a reaction solution in which water was added in place of the substrate was also prepared in the same manner. After a reaction was allowed to proceed at room temperature, whether or not the color was developed was confirmed by visual observation, and the crude extract solution added to the reaction solution in which the color was developed was determined to have an oxidase activity.
The measurement of the activity of the present enzyme was performed by measuring an increase in absorbance at 420 nm using the same peroxidase method as described above. The enzymatic reaction was initiated by adding D-mannitol, and the absorbance was measured over time for 10 minutes under the reaction conditions of 30° C. using a spectrophotometer U-2010 manufactured by Hitachi Co., Ltd. The reaction was performed by preparing the reaction solution so that the total amount thereof was 1 mL as shown in Table 11. “1 unit” was defined as the amount of the enzyme required to increase the absorbance at 420 nm by 1 for 1 minute.
Among the polyols used in the assay, the activity of the enzyme was high for D-arabitol, erythritol, D-mannitol, and D-sorbitol, which are listed in descending order of activity, and a high activity was not observed for the other polyols.

[2] = system: polyol oxidase of the B strain; assay: Screening for oxidase activity, crude extract of B strain (peroxidase method, visual colour development); assay type: biochemical, B strain (filamentous fungus); details: substrate 0.5 M, room temperature
Procedure: (§1) Isolated microbial cells were inoculated into 5 mL of PDB, followed by shaking incubation at 28° C. for 1 week. In a 200-mL Erlenmeyer flask, 6 g of wheat bran and 15 mL of water were added and mixed with each other, and the resulting mixture was sterilized in an autoclave and used as a wheat bran culture medium. To the thus prepared wheat bran culture medium, the liquid-cultured microbial cells were added together with the total amount of the culture solution, and the resulting mixture was incubated at 28° C. After two-week incubation, an extract solution was prepared by a method described below and used for the measurement of the oxidase activity.
(§2) To the wheat bran culture medium in which the microbial cells were grown, 20 mL of a 10 mM potassium phosphate buffer (pH 7.0) was added, and the cells were well immersed therein and left to stand on ice for 1 hour, and then, the mixture was squeezed with a gauze pad. Thereafter, centrifugation was performed at 4° C. and 12,000 rpm for 18 minutes to remove fine particles, and the resulting solution was used as a crude extract solution.
(§3) In primary screening, a sugar mixed solution and an amino acid mixed solution were used in consideration of efficiency. The crude extract solution in which the activity was detected by the primary screening was subjected to secondary screening using the respective substrates individually at 0.5 M, and the substrate was specified.
(§4) As the measurement method for the oxidase activity, a peroxidase method was used. […]
(§5) In this method, the activity is measured by colorimetric determination of hydrogen peroxide generated by an oxidation reaction. […] The oxidized ABTS develops a blue color, and therefore, by visual observation or measurement of absorbance at 420 nm, the oxidase activity can be detected. […] After a reaction was allowed to proceed at room temperature, whether or not the color was developed was confirmed by visual observation, and the crude extract solution added to the reaction solution in which the color was developed was determined to have an oxidase activity.

[3] = system: polyol oxidase of the A strain; assay: Screening for oxidase activity, crude extract of A strain (peroxidase method, visual colour development); assay type: biochemical, Penicillium sp. KU-1 (A strain); details: substrate 0.5 M, room temperature
Procedure: as §1, §2, §3, §4, §5

[4] = system: D-glucose oxidase of the C strain; assay: Screening for oxidase activity, crude extract of C strain (peroxidase method, visual colour development); assay type: biochemical, Aspergillus niger (C strain); details: substrate 0.5 M, room temperature
Procedure: as §1, with “activity. […]” for “activity.”
as §3, with “specified. […]” for “specified.”
In this method, the activity is measured by colorimetric determination of hydrogen peroxide generated by an oxidation reaction. […] The oxidized ABTS develops a blue color, and therefore, by visual observation or measurement of absorbance at 420 nm, the oxidase activity can be detected. […]

Structure (SMILES) | activity of the enzyme for the polyol (in words) [1] | Relative activity (%) [1] | reactivity as a substrate of the D-glucose oxidase of the C strain [4] | reactivity as a substrate of the enzyme of the B strain [2] | reactivity as a substrate of the oxidase of the A strain [3]
OCC(O)CO [Glycerol] | – | 0.18% | – | – | –
OC[C@@H](O)C(O)[C@H](O)CO [D-arabitol] | high | 100% | – | – | –
OC[C@@H](O)[C@@H](O)[C@H](O)[C@H](O)CO [D-mannitol] | high | 79.0% | – | uses all of D-sorbitol, D-mannitol, and allitol as a substrate | uses D-sorbitol and D-mannitol as a substrate
OC[C@@H](O)[C@@H](O)CO [Erythritol] | high | 80.5% | – | – | –
OC[C@@H](O)[C@@H](O)[C@H](O)[C@@H](O)CO [D-sorbitol] | high | 36.7% | – | uses all of D-sorbitol, D-mannitol, and allitol as a substrate | uses D-sorbitol and D-mannitol as a substrate
O=C[C@H](O)[C@@H](O)[C@H](O)[C@H](O)CO [D-glucose] | – | – | high substrate specificity for D-glucose | – | –
OC[C@@H](O)[C@@H](O)[C@@H](O)[C@@H](O)CO [Allitol] | low | 0.45% | – | uses all of D-sorbitol, D-mannitol, and allitol as a substrate | does not show reactivity
OC[C@@H](O)[C@H](O)[C@H](O)[C@H](O)CO [D-talitol] | low | 0.3% | – | – | –

Now from value to compound, other results behind:

activity of the enzyme for the polyol (in words) [1] | Relative activity (%) [1] | reactivity as a substrate of the D-glucose oxidase of the C strain [4] | Structure (SMILES) | reactivity as a substrate of the enzyme of the B strain [2] | reactivity as a substrate of the oxidase of the A strain [3]
low | – | – | OC[C@@H](O)[C@@H](O)[C@@H](O)CO [Ribitol] | – | –
– | 0.3% | – | OC[C@H](O)[C@H](O)[C@H](O)[C@@H](O)CO [L-talitol] | – | –
– | 1.2% | – | OC[C@@H](O)[C@H](O)[C@@H](O)CO [Xylitol] | – | –
